From ChEMBL document CHEMBL1268904, “Potent and selective HIV-1 ribonuclease H inhibitors based on a 1-hydroxy-1,8-naphthyridin-2(1H)-one scaffold” (Bioorg Med Chem Lett, 2010) come the findings set out here.

The target of series [1] is Human immunodeficiency virus type 1 reverse transcriptase (Human immunodeficiency virus 1, UniProt Q72547). The series is described as follows: Inhibition of wild type HIV1 reverse transcriptase RNasH activity.
Series [2] is described as follows: Inhibition of HIV1 reverse transcriptase D443N mutant RNA-dependent DNA plymerase activity. More on the design: species or system Human immunodeficiency virus 1.
The target of series [3] is Human immunodeficiency virus type 1 integrase (Human immunodeficiency virus 1, UniProt Q7ZJM1). The series is described as follows: Inhibition of HIV1 integrase strand transfer activity.
Series [4] has as its system Human immunodeficiency virus 1. As to the kind of experiment: Antiviral activity against HIV1 HXB2 infected in human HeLaP4-2 cells assessed as inhibition of single-cycle viral replication. The format is functional, organism-based. Conditions: Human immunodeficiency virus 1, HXB2, HeLaP4-2.
The nature of series [5]: Cytotoxicity against human HeLaP4-2 cells by alamar blue assay. The format is cell-based. (In general: Resazurin is reduced to fluorescent resorufin, in cell work by metabolically active cells.)
Series [6] can be described thus: Therapeutic index, ratio of CC50 for human HeLaP4-2 cells to IC50 for HIV1 HXB2 infected in human HeLaP4-2 cells. The format is cell-based. Conditions: HeLaP4-2 cells infected with HIV1 HXB2, read-out: Ratio CC50/IC50.
A short description of series [7]: Cytotoxicity against human HeLaP4-2 cells up to 50 uM by alamar blue assay. The format is cell-based.
Series [8] in a line: Lipophilicity, log P of the compound. It counts as physicochemical. The note with it: octanol/water.
In series [9] the test system is Human immunodeficiency virus 1. The series is described as follows: Selectivity ratio of IC50 for HIV1 reverse transcriptase D443N mutant RNA-dependent DNA plymerase activity to IC50 for wild type HIV1 reverse transcriptase RNasH activity.
In series [10] the test system is Human immunodeficiency virus 1. As to the kind of experiment: Selectivity ratio of IC50 for HIV1 integrase strand transfer activity to IC50 for wild type HIV1 reverse transcriptase RNasH activity.
For series [11], the system named is Human immunodeficiency virus 1. As to the kind of experiment: Selectivity ratio of IC50 for HIV1 integrase N155H mutant strand transfer activity to IC50 for HIV1 integrase strand transfer activity.
The test system of series [12] is Human immunodeficiency virus 1. The series is described as follows: Selectivity ratio of IC50 for HIV1 integrase Q148R mutant strand transfer activity to IC50 for HIV1 integrase strand transfer activity.
For series [13], the system named is Human immunodeficiency virus 1. The series is described as follows: Selectivity ratio of IC50 for HIV1 integrase Y143R mutant strand transfer activity to IC50 for HIV1 integrase strand transfer activity.
Series [14] concerns Human immunodeficiency virus 1. As to the kind of experiment: Antiviral activity against HIV1 3B infected in human MT4 cells assessed as decrease in viral p24 antigen level after 14 to 21 days. It counts as functional. Conditions: Human immunodeficiency virus 1, 3B.
A further series has as its system MT4. The series is described as follows: Cytotoxicity against human MT4 cells at 1.5 uM. The note with it: mt4, 1.5 µM. It counts as cell-based.

Human immunodeficiency virus type 1 integrase, sequence (Q7ZJM1 whole entry): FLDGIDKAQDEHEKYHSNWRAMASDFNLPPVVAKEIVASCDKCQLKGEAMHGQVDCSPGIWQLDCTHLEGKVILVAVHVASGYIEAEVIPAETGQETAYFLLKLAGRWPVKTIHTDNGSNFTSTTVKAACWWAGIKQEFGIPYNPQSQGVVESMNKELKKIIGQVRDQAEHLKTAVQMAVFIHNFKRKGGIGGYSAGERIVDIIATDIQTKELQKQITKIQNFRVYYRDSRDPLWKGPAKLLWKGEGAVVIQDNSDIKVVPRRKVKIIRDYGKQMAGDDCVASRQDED

By IC50 is commonly meant the midpoint of a concentration-inhibition curve. As a reminder, the CC50 is the concentration that lowers cell viability or growth by half. The low end stands for greater toxicity to the cells, the high end for lower toxicity to the cells. With `NCc1ccc(-c2cccc(-c3cc(=O)n(O)c4ncccc34)c2)cc1`, the IC50 in series [1] came out at 0.13 µM; in [2] it was 16 µM; in [3], 7.8 µM; in [4], 0.62 µM. This compound yielded a CC50 in series [5] of 2.3 µM. Besides, the selectivity ratio in [6] is 3.
Broadly, the logP is the decadic logarithm of the partition coefficient of the neutral form, usually between octanol and water. A higher logP goes with higher lipophilicity. For `CCOC(=O)c1c(O)c2cccnc2n(O)c1=O`, the IC50 in series [1] turned out to be 0.11 µM; in [4] it was 2.5 µM. The Activity result in series [7] was “Non-toxic”. This compound also yielded a lipophilicity (logP) in series [8] of 2.2.
Take `O=c1cc(-c2cccc(-c3ccccc3)c2)c2cccnc2n1O`: the IC50 in series [1] stood at 0.64 µM; in [2], 9 µM; in [3], 2.4 µM; in [4], 34 µM. Besides, the CC50 in series [5] was above 50 µM.
As for `O=c1ccc2cccnc2n1O`, the 50% inhibitory concentration (IC50) in series [1] is 1.4 µM; in [2] it was above 50 µM; in series [3] it was 15 µM; in series [4], 4.5 µM. For the same compound, half-maximal cytotoxicity in [5] (CC50) was put at 20 µM. The Ratio IC50 amounted to 30 in series [9] and 10 in [10]. Moreover, in [6], the selectivity ratio amounted to 4.
Take `NCc1cccc(-c2cccc(-c3cc(=O)n(O)c4ncccc34)c2)c1`: the concentration for half-maximal inhibition (IC50) is 0.15 µM in series [1], 5.1 µM in series [2], 9.1 µM in series [3] and 0.85 µM in [4]. Besides, half-maximal cytotoxicity in series [5] (CC50) was put at 4.9 µM. The selectivity ratio in [6] stood at 3.
Turning to `NCc1ccccc1-c1cccc(-c2cc(=O)n(O)c3ncccc23)c1`, the IC50 in series [1] came out at 0.67 µM; in [2], 36 µM; in series [3] it was 18 µM; in series [4], 2.8 µM. Besides, the midpoint of cytotoxicity in series [5], the CC50, lay at 9.1 µM. Besides, the selectivity ratio in series [6] is 3.
In general, IC95 refers to the point of the concentration-response curve where the effect stands at 95%. As for `NCc1ccc(-c2ccc(Cc3cc(=O)n(O)c4ncccc34)cc2)cc1`, the IC50 was 0.045 µM in series [1], 13 µM in series [2], 24 µM in series [3] and 0.19 µM in series [4]. In series [5], this compound returned a 50% cytotoxic concentration (CC50) of 3.3 µM. The compound further displayed a lipophilicity (logP) in [8] of 0.15. Also, the selectivity ratio in series [6] came out at 17. The Ratio IC50 came out at 1.1 in series [11], 1.9 in series [12] and 0.84 in series [13]. Besides, the IC95 in series [14] was determined as 0.92 µM. Also, the Activity entry with MT4 was “Non-toxic”.
Regarding `NCc1ccc(-c2cccc(Cc3cc(=O)n(O)c4ncccc34)c2)cc1`, the IC50 in [1] amounted to 0.1 µM; in series [2] it was 11 µM; in series [3], 8.1 µM; in [4], 0.43 µM. In [5], this compound returned a cytotoxic concentration (CC50) of 4.6 µM. Also, the selectivity ratio in series [6] came to 11.
